{"source": "patent US8916681B2", "about": "“Compound, use and method” (Medical Research Council, priority 2007, dated 2014)", "key": {"serum LH": {"test_system": "serum LH", "assay": "Serum LH in orchidectomized (castrated) male rats, icv injections", "format": "in vivo, rat", "conditions": "1 nmol at 0, 60 and 120 min; significant at 240 min", "experimental": "In addition, repeated icy injection of the peptide 234 was also conducted in orchidectomized (ORX) rats. The animals were subjected to bilateral ORX via the scrotal route, and after 1-wk after surgery were subjected to cannula implantation as described above. The test involved three intracerebral injections of the antagonist (1 nmol; at 0-, 60- and 120-min of the procedure) and blood sampling by jugular venipuncture in basal conditions (0-min) and 15-min after each icy injection. Additional blood samples were obtained at 180- and 240-min after central administration of peptide 234. For each time-point, 10-12 samples were taken per group.\nSerum LH levels were measured in a volume of 50 μl using a double-antibody method and radioimmunoassay kits supplied by the NIH (Dr. AF Parlow, NIDDK). […] For each hormone, all samples were measured in the same assay. […]\nHormonal determinations were conducted in duplicate, with a minimal total number of 10 samples per group. When appropriate, in addition to individual time-point measurements, integrated LH secretory responses were calculated as the area under the curve (AUC), following the trapezoidal rule. […] Results were analyzed for statistically significant differences using Student t-test or ANOVA followed by Student-Newman-Keuls multiple range test (SigmaStat 2.0). […]"}, "GPR54": {"molecular_target": "GPR54 (Homo sapiens, UniProt Q969F8)", "sequence (Q969F8 whole entry)": "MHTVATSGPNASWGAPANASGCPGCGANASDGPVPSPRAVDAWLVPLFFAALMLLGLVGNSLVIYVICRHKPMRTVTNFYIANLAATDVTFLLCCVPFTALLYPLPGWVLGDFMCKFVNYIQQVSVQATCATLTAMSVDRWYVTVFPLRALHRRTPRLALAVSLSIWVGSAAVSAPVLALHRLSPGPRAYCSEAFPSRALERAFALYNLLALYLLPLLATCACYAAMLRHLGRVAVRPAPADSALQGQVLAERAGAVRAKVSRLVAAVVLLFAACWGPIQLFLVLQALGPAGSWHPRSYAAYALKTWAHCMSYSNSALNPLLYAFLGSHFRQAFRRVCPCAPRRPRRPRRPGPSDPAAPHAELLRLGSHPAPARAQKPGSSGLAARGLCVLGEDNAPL", "assay": "Inositol phosphate (IP) stimulation assay in CHO/gpr-54 cells", "format": "cell-based", "set-up": "G. Vassart, Univ; Brussels", "conditions": "CHO cells stably-expressing human gpr-54", "procedure": "Inositol-3-phoshate Stimulation Assay—Cell monolayers had 0.5 mls HEPES modified DMEM supplemented with 1% Penicillin/Streptomycin for 30 mins at 37° C. to block IP3 breakdown. Cells were then stimulated with 0.5 mls Kisspeptin-10 and analogues (10 pM-1 uM) diluted at 1:1000 in the above media for 1 hr at 37° C., then in 10 mM Formic acid at 4° C. for 1 hr to lyse cells. Lysate was then transferred to plastic tubes containing 0.5 mls Dowex resin to bind the radioactive IP3 and the resin was then washed with 1 ml H2O. The resin was then washed with 60 mM NH4 formate/5 mM Sodium tetraborate followed by 1M NH4 formate/0.1M Formic acid to release the bound radiation. Then 800 μls of the radioactive solution were transferred to scintillation vials containing 2.5 mls scintillation fluid and radioactivity counted on a Beta counter for 60 seconds.\nIP stimulation refers to intrinsic residual agonist activity where estimateable.\nThe cells were maintained in Dulbecco's modified Eagle's medium (DMEM; Sigma) supplemented with 10% fetal calf serum, 2% glutamine and 1% penicillin (10,000 units/ml)/streptomycin (10,000 mg/ml) at 37° C. in a humidified 5% CO2 atmosphere.\nPrior to stimulation CHO/gpr-54 cells were washed twice with Dulbecco's phosphate-buffered saline (DPBS; without calcium or magnesium) then incubated overnight with ^3H-myoinositol, labeled HEPES-modified DMEM with 1% penicillin/streptomycin at 37° C. HEPES-modified DMEM supplemented with 1% penicillin/streptomycin and 1% lithium chloride (0.5 ml) was added to cells for 30 min at 37° C. to block IP hydrolysis. Cells were then stimulated with 0.5 ml kisspeptin-10 and analogues (10 pM-1 μM) diluted at 1:100 in the above media for 1 h at 37° C., then with 10 mM formic acid at 4° C. for 1 h to lyse cells. Lysates were transferred to plastic tubes containing 0.5 ml Dowex resin to bind the radioactive IP and the resin was then washed with 1 ml water. The resin was next washed with 60 mM ammonium formate/5 mM sodium tetraborate. followed by 1M ammonium formate/0.1M formic acid to release the bound radiation. Then 800 μl of the radioactive solution were transferred to scintillation vials containing 2.5 ml scintillation fluid and radioactivity counted on a Beta counter for 60 sec. Experiments were repeated 3-5 times. IP production was plotted as mean values±SEM and analyzed by using a Student's t-Test (p≧0.05)."}}, "note": "Entries after “also recorded” stand apart in the source; their conditions may differ. Non-standard residues stand in square brackets, D forms with d. Residues, ends and D or L forms follow the SMILES beside them.", "data": [{"smiles": "CC(=O)N[C@H](C)C(=O)N[C@@H](CC(N)=O)C(=O)N[C@@H](Cc1c[nH]c2ccccc12)C(=O)N[C@@H](CC(N)=O)C(=O)NCC(=O)N[C@@H](Cc1ccccc1)C(=O)NCC(=O)N[C@H](Cc1c[nH]c2ccccc12)C(=O)N[C@@H](CCCNC(=N)N)C(=O)N[C@@H](Cc1ccccc1)C(N)=O", "note": "[Peptide 234] (Ac-[dA]NWNGFG[dW]RF-NH2)", "values": [{"measurement": "serum LH levels in castrated males", "setting": "serum LH", "result": "inhibited; also recorded: tended to reduce; also recorded: blocked the increase in LH"}, {"measurement": "stimulation of IP by the peptide alone", "setting": "GPR54", "result": "little or no stimulation; also recorded: no intrinsic IP stimulation"}]}]}
